The subject of the experiment is L1210 leukemia ip in BDF1 mice, survival T/C. Briefly: NCI In Vivo Anticancer Drug Screen. Data for tumor model L1210 Leukemia (intraperitoneal) in B6D2F1 (BDF1) mice. The note with it: endpoint: mean survival time, higher = longer survival. In a few lines:
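Tumor cells were implanted, animals were treated, and survival was followed. The result divides the treated measurement by the vehicle-control measurement.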

Setting [1] is: dose: 75.0 mg/kg/injection, schedule: Q01DX001 (ip), vehicle: carboxymethylcellulose (CMC).
Where [2] appears, read: dose: 100.0 mg/kg/injection, schedule: Q04DX003 (ip), vehicle: Klucel (hydroxypropylcellulose) (HPC).
Setting [3] is: dose: 200.0 mg/kg/injection, schedule: Q04DX003 (ip), vehicle: Klucel (hydroxypropylcellulose) (HPC).
Setting [4] is: dose: 400.0 mg/kg/injection, schedule: Q04DX003 (ip), vehicle: Klucel (hydroxypropylcellulose) (HPC).
[5] abbreviates: dose: 100.0 mg/kg/injection, schedule: Q01DX001 (ip), vehicle: saline.
Setting [6] is: dose: 200.0 mg/kg/injection, schedule: Q01DX001 (ip), vehicle: saline.

“And” between values parts separate entries of the source, which are not always exact repeats. Equal entries are not always repeated. Inconclusive results and toxic doses are left out.

For the molecule `C=CCC1(CCCCC)C(=O)NC(=S)NC1=O`, the T/C reads like this: (dose: 75.0 mg/kg/injection, schedule: Q01DX001 (ip), vehicle: saline) 100 % of control; (dose: 150.0 mg/kg/injection, schedule: Q01DX001 (ip), vehicle: saline) 100 % of control.
Take `O=S(=O)(F)c1ccc(S)c(Cl)c1Cl`: the T/C runs as follows: (dose: 25.0 mg/kg/injection, schedule: Q04DX002 (ip), vehicle: saline with Tween-80) 102 % of control; (dose: 50.0 mg/kg/injection, schedule: Q04DX002 (ip), vehicle: saline with Tween-80) 91 % of control; (dose: 100.0 mg/kg/injection, schedule: Q04DX002 (ip), vehicle: saline with Tween-80) 89 % of control.
On to `Fc1c(Cl)c(F)c(Cl)c(F)c1Cl`, for which the T/C (dose: 100.0 mg/kg/injection, schedule: Q01DX001 (ip), vehicle: carboxymethylcellulose (CMC)) is 94 % of control; the T/C (dose: 200.0 mg/kg/injection, schedule: Q01DX001 (ip), vehicle: carboxymethylcellulose (CMC)) was 97 % of control; the T/C (dose: 400.0 mg/kg/injection, schedule: Q01DX001 (ip), vehicle: carboxymethylcellulose (CMC)) is 94 % of control.
For `COc1cc(C=Nc2ccc3ccccc3c2)ccc1N(CCCl)CCCl`, the T/C runs as follows: (dose: 0.9 mg/kg/injection, schedule: Q01DX009 (ip), vehicle: carboxymethylcellulose (CMC)) 102 % of control; (dose: 1.3 mg/kg/injection, schedule: Q01DX009 (ip), vehicle: carboxymethylcellulose (CMC)) 118 % of control; (dose: 1.5 mg/kg/injection, schedule: Q01DX009 (ip), vehicle: carboxymethylcellulose (CMC)) 108 % of control; (dose: 3.0 mg/kg/injection, schedule: Q01DX009 (ip), vehicle: carboxymethylcellulose (CMC)) 114 % of control and 117 % of control; (dose: 6.0 mg/kg/injection, schedule: Q01DX009 (ip), vehicle: carboxymethylcellulose (CMC)) 122 % of control; (dose: 20.0 mg/kg/injection, schedule: Q01DX009 (ip), vehicle: carboxymethylcellulose (CMC)) 119 % of control. The T/C by setting is: (dose: 30.0 mg/kg/injection, schedule: Q01DX009 (ip), vehicle: carboxymethylcellulose (CMC)) 100 % of control; (dose: 40.0 mg/kg/injection, schedule: Q01DX001 (ip), vehicle: carboxymethylcellulose (CMC)) 151 % of control; under setting [1], 119 % of control.
For the molecule `CN=C(NCCCOC)c1ccc(NC(=O)Nc2ccc(NC(=O)Nc3ccc(C(=NC)NCCCOC)cc3)cc2)cc1`, the T/C runs as follows: (dose: 1.87 mg/kg/injection, schedule: Q01DX Z (ip), vehicle: carboxymethylcellulose (CMC)) 107 % of control; (dose: 3.75 mg/kg/injection, schedule: Q01DX Z (ip), vehicle: carboxymethylcellulose (CMC)) 96 % of control; (dose: 7.5 mg/kg/injection, schedule: Q01DX Z (ip), vehicle: carboxymethylcellulose (CMC)) 104 % of control; (dose: 15.0 mg/kg/injection, schedule: Q01DX Z (ip), vehicle: carboxymethylcellulose (CMC)) 102 % of control.
In the case of `CC1C(C)(C)C1(Cl)Cl` (stereo unspecified), the T/C is 92 % of control (dose: 50.0 mg/kg/injection, schedule: Q01DX009 (ip), vehicle: saline sonified); 92 % of control (dose: 100.0 mg/kg/injection, schedule: Q01DX009 (ip), vehicle: saline sonified); 101 % of control (dose: 200.0 mg/kg/injection, schedule: Q01DX009 (ip), vehicle: saline sonified).
With `O=C(Nc1ccccc1F)c1ccc(Cl)c(Cl)c1`, the T/C was 98 % of control under setting [2]; 92 % of control (dose: 200.0 mg/kg/injection, schedule: Q01DX009 (ip), vehicle: Klucel (hydroxypropylcellulose) (HPC)); 96 % of control under setting [3]; 86 % of control (dose: 400.0 mg/kg/injection, schedule: Q01DX009 (ip), vehicle: Klucel (hydroxypropylcellulose) (HPC)); 93 % of control under setting [4].
On to `O=NN(CCI)C(=O)NCCI`, for which the T/C reads like this: (dose: 18.75 mg/kg/injection, schedule: Q01DX001 (ip), vehicle: carboxymethylcellulose (CMC)) 96 % of control; (dose: 37.5 mg/kg/injection, schedule: Q01DX001 (ip), vehicle: carboxymethylcellulose (CMC)) 98 % of control; (dose: 50.0 mg/kg/injection, schedule: Q01DX001 (ip), vehicle: carboxymethylcellulose (CMC)) 96 % of control; under setting [1], 100 % of control; under setting [5], 103 % of control; under setting [6], 110 % of control.
For the molecule `COC1CCCC(/C(=C\Br)c2ccccc2)C1` (stereo unspecified), the T/C under setting [5] is 106 % of control; the T/C under setting [6] is 106 % of control; the T/C (dose: 400.0 mg/kg/injection, schedule: Q01DX001 (ip), vehicle: saline) is 115 % of control.
Regarding `C[n+]1cccc2c3ccccc3c(-c3ccccc3)cc21`, the T/C (dose: 0.78 mg/kg/injection, schedule: Q01DX009 (ip), vehicle: water) is 86 % of control; the T/C (dose: 1.56 mg/kg/injection, schedule: Q01DX009 (ip), vehicle: water) was 102 % of control; the T/C (dose: 3.12 mg/kg/injection, schedule: Q01DX009 (ip), vehicle: water) was 87 % of control; the T/C (dose: 6.25 mg/kg/injection, schedule: Q01DX009 (ip), vehicle: water) is 112 % of control and 92 % of control; the T/C (dose: 12.5 mg/kg/injection, schedule: Q04DX003 (ip), vehicle: water) was 104 % of control; the T/C (dose: 25.0 mg/kg/injection, schedule: Q04DX003 (ip), vehicle: water) was 104 % of control.
For the molecule `Cn1c2ccc(Cl)cc2c2nnc(NCCCO)nc21`, the T/C runs as follows: (dose: 100.0 mg/kg/injection, schedule: Q04DX002 (ip), vehicle: saline) 97 % of control; (dose: 200.0 mg/kg/injection, schedule: Q04DX002 (ip), vehicle: saline) 89 % of control; (dose: 400.0 mg/kg/injection, schedule: Q04DX002 (ip), vehicle: saline) 93 % of control.
For the molecule `COc1ccc(C(C#N)CC(=O)c2ccc3c(c2)OCO3)cc1OC` (stereo unspecified), the T/C (dose: 100.0 mg/kg/injection, schedule: Q01DX009 (ip), vehicle: saline) was 104 % of control; the T/C (dose: 100.0 mg/kg/injection, schedule: Q04DX003 (ip), vehicle: saline) was 98 % of control; the T/C (dose: 200.0 mg/kg/injection, schedule: Q01DX009 (ip), vehicle: saline) was 104 % of control; the T/C (dose: 200.0 mg/kg/injection, schedule: Q04DX003 (ip), vehicle: saline) is 104 % of control; the T/C (dose: 400.0 mg/kg/injection, schedule: Q01DX009 (ip), vehicle: saline) was 97 % of control; the T/C (dose: 400.0 mg/kg/injection, schedule: Q04DX003 (ip), vehicle: saline) is 98 % of control.
With `COC(=O)C1CC2(C(=O)OC)CC(C(=O)OC)(CC(C(=O)OC)C2=O)C1=O` (stereo unspecified), the T/C runs as follows: (dose: 50.0 mg/kg/injection, schedule: Q04DX002 (ip), vehicle: Klucel (hydroxypropylcellulose) (HPC)) 93 % of control; (dose: 100.0 mg/kg/injection, schedule: Q04DX002 (ip), vehicle: Klucel (hydroxypropylcellulose) (HPC)) 102 % of control; under setting [2], 95 % of control; (dose: 200.0 mg/kg/injection, schedule: Q04DX002 (ip), vehicle: Klucel (hydroxypropylcellulose) (HPC)) 108 % of control; under setting [3], 89 % of control; under setting [4], 92 % of control.
As to `CCC(/C=C\C(C)C1CCC2C3CC=C4CC(OS(=O)(=O)c5ccc(C)cc5)CCC4(C)C3CCC12C)C(C)C` (stereo unspecified), the T/C was 90 % of control (dose: 100.0 mg/kg/injection, schedule: Q01DX001 (ip), vehicle: saline with Tween-80); 90 % of control (dose: 200.0 mg/kg/injection, schedule: Q01DX001 (ip), vehicle: saline with Tween-80); 86 % of control (dose: 400.0 mg/kg/injection, schedule: Q01DX001 (ip), vehicle: saline with Tween-80).
Take `c1ccc2c(c1)ccc1c[n+]3c4ccccc4ccc3n12`: the T/C is, setting by setting: (dose: 0.62 mg/kg/injection, schedule: Q01DX009 (ip), vehicle: saline) 105 % of control; (dose: 1.25 mg/kg/injection, schedule: Q01DX009 (ip), vehicle: saline) 113 % of control; (dose: 2.5 mg/kg/injection, schedule: Q01DX009 (ip), vehicle: saline) 123 % of control; (dose: 5.0 mg/kg/injection, schedule: Q04DX003 (ip), vehicle: saline) 106 % of control; (dose: 10.0 mg/kg/injection, schedule: Q01DX001 (ip), vehicle: saline) 109 % of control; (dose: 20.0 mg/kg/injection, schedule: Q01DX001 (ip), vehicle: saline) 105 % of control.
`CC1(C)CC(OP(OC2CC(C)(C)N(O)C(C)(C)C2)OC2CC(C)(C)N(O)C(C)(C)C2)CC(C)(C)N1O`: the T/C (dose: 100.0 mg/kg/injection, schedule: Q01DX001 (ip), vehicle: water) is 100 % of control; the T/C (dose: 200.0 mg/kg/injection, schedule: Q01DX001 (ip), vehicle: water) is 94 % of control; the T/C (dose: 400.0 mg/kg/injection, schedule: Q01DX001 (ip), vehicle: water) was 94 % of control.
